SMILES strings stand for the structures. Several values for one entry are separate records, joined by “and”; a condition that tells them apart may be missing. Identical values can stand only once. Like-named read-outs stand apart in the source and are kept apart here.

For data set [1], the system named is rat brain voltage-dependent sodium channels (BTX-modified). It counts as biochemical.
A short description of data set [2]: Fraction of uncharged molecules at pH 7.4. It counts as physicochemical.
The mark [3] stands for this setting: Fig. 5 A, one channel, +60 mV, low-Kd period.

With `CC[N+](CC)(CC)CC(=O)Nc1c(C)cccc1C` [QX-314, lidocaine N-ethyl], in data set [1] (0.4 mM QX-314, +60 mV, six channels, 3.66 h), the “Measured FO2 (fractional time in the high affinity conformation)” value is given as 0.655. Also, the “Measured FO2 (fractional time in the high affinity conformation)” value in data set [1] (3.0 mM QX-314, +60 mV, two channels, 4.32 h) turned out to be 0.983. Besides, in data set [1] (30 mM lidocaine (0.2 M NaCl) or 0.4 mM QX-314 (0.5 M NaCl), Fig. 7), the “block of the small subconductance channel state (~6 pS)” value is “did not block”. Further, in data set [1] (setting [3]), the “koff (amplitude distribution, beta function fit)” value worked out at 238 s⁻¹ and the “kon (amplitude distribution, beta function fit)” value came out at 896000 M⁻¹ s⁻¹. Moreover, the off-rate (koff) in data set [1] (Table I A, symmetrical 0.5 M NaCl, 160mV as printed, channels a, b, c) is 238 s⁻¹ and 253 s⁻¹ and 291 s⁻¹ and 256 s⁻¹. For the same compound, in data set [1] (low-Kd period, Table I part B), the “kon rate relative to lidocaine” value is reported as “about six times lower”.
Turning to `CCN(CC)CC(=O)Nc1c(C)cccc1C` [lidocaine], in data set [2], the uncharged molecules is reported as ~ 14%.

In general, koff refers to the rate constant with which the complex falls apart. Low readings indicate slow dissociation, high ones fast dissociation.

The values are drawn from PMC2219390 (The Journal of General Physiology, 1996).
